From patent US9074188B2, “Cardiomyocyte- and/or cardiac progenitor cell-proliferating agent and method for proliferating cardiomyocytes and/or cardiac progenitor cells” (KYOTO UNIVERSITY, priority 2010, dated 2015)

Experiments:
[1] = system: Flkd6 cardiomyocytes whose differentiation was induced from mouse ES cells EMG-7; assay: Proliferation of mouse ES cell (EMG-7)-derived cardiomyocytes Flkd6: number of alpha-MHC-GFP-positive cells; format: cell-based; conditions: for number of alpha-MHC-GFP-positive cells after addition (screening): Flkd6 purified by FACS, cultured for 5 days, 1 μM BIO, 5 μM SU1498, 5 μM KN93, FIG. 1a; for number of alpha-MHC-GFP-positive cells by FACS: cultured for 2 days (Flkd6+2) or 5 days (Flkd6+5), especially Flkd6+5, FIG. 1b; for cardiomyocyte-proliferation-promoting effect (number of alpha-MHC-GFP-positive cells per well): Flkd6+5, FIGS. 3a, 3b, 3d
Experimental: The human iPS cells (253G1) were provided by Prof. […] 253G1 cells are available from RIKEN BRC.
Thereafter, Flk1-positive cells were separated using FACS, and the separated cells were cultured on OP9 cells using a 3 μg/ml Cyclosporine A-containing medium (alpha MEM supplemented with 10% FBS) for 6 days, to induce differentiation into cardiomyocytes. These cells are hereinafter referred to as Flkd6.
The above-mentioned Flkd6, obtained by differentiation of EMG-7, was subjected to purification by FACS using alpha-MHC-GFP as an index. […] These three agents were added to Flkd6, and the cells were then cultured for 2 days (Flkd6+2) or 5 days (Flkd6+5), followed by measuring the number of alpha-MHC-GFP-positive cells by FACS.

[2] = system: Flkd6 cardiomyocytes whose differentiation was induced from EMG-7; assay: Influence on cell cycle: cells positive for pH3 (M phase) or EdU (S phase) in Flkd6; format: cell-based, mouse; conditions: Flkd6 cultured with agent; FIG. 2
Experimental: DMSO is a control wherein only a solvent was added.
In order to examine the influence on the cell cycle, the number of cells positive for phosphorylation of histone 3 (pH3) (M phase) or ethynyl […] (EdU) (S phase) was assayed (FIG. 2a-d).

| SMILES | number of alpha-MHC-GFP-positive cells after addition (screening) [1] | number of alpha-MHC-GFP-positive cells by FACS [1] | influence on the cell cycle: pH3 (M phase) or EdU (S phase) positive cells [2] | cardiomyocyte-proliferation-promoting effect (number of alpha-MHC-GFP-positive cells per well) [1] |
| --- | --- | --- | --- | --- |
| CC(C)c1cc(/C=C(\C#N)C(=O)NCCCc2ccccc2)cc(C(C)C)c1O [SU1498, (E)-3-(3,5-diisopropyl-4-hydroxyphenyl)-2-[(3-phenyl-n-propyl)aminocarbonyl]acrylonitrile] | significantly increased the number of alpha-MHC-GFP-positive cells | significant increase in the number of the positive cells | – | – |
| O=C1Nc2cc(Br)ccc2/C1=C1/Nc2ccccc2/C1=N\O [BIO, 6-bromoindirubin 3′-oxime] | significantly increased the number of alpha-MHC-GFP-positive cells | significant increase in the number of the positive cells | promotes the S phase and the M phase from the early stage after its addition | – |
| Cc1ccc(NC(=O)c2cccc(N(C)C)c2)cc1NC(=O)c1ccc(O)cc1 [ZM336372, 3-(dimethylamino)-N-[3-[(4-hydroxybenzoyl)amino]-4-methylphenyl]benzamide] | – | – | – | has a cardiomyocyte-proliferation-promoting effect |
| CN([C@@H](Cc1ccc(OS(=O)(=O)c2cccc3cnccc23)cc1)C(=O)N1CCN(c2ccccc2)CC1)S(=O)(=O)c1cccc2cnccc12 [KN62, 1-[N,O-bis(5-isoquinolinesulfonyl)-N-methyl-L-tyrosyl]-4-phenylpiperazine] | – | – | – | also have similar effects |
| COc1ccc(S(=O)(=O)N(CCO)c2ccccc2CN(C)CC=Cc2ccc(Cl)cc2)cc1 [KN93] | significantly increased the number of alpha-MHC-GFP-positive cells | significant increase in the number of the positive cells | – | – |
| Cc1c[nH]c(-c2cnc(NCCNc3ccc(C#N)cn3)nc2-c2ccc(Cl)cc2Cl)n1 [CHIR99021] | – | – | – | also have similar effects |
